Test results taken from patent US20080262228A1, “Metabolites of 5-fluoro-8- quinoline and methods of preparation and uses thereof” (Wyeth, priority 2006, published 2008).
Several values for one entry are separate records, joined by “and”; a condition that tells them apart may be missing. Equal values may be shown once. Marks after values point to notes of the source that are not given here.

Assay: In vivo metabolism of [14C]COMPOUND I in Sprague-Dawley rats, single oral 5 mg/kg dose
Parameters: species or system rat
Conditions: 5 mg/kg oral
[1] = female rats, 1 hr, individual rats, 5 mg/kg
[2] = female rats, 1 hr, mean ± SD, 5 mg/kg
[3] = female rats, 3 hr, individual rats, 5 mg/kg
[4] = female rats, 3 hr, mean ± SD, 5 mg/kg
[5] = male rats, 1 hr, individual rats, 5 mg/kg
[6] = male rats, 1 hr, mean ± SD, 5 mg/kg
[7] = male rats, 3 hr, individual rats, 5 mg/kg
[8] = male rats, 3 hr, mean ± SD, 5 mg/kg
[9] = male rats, 6 hr, individual rats, 5 mg/kg
[10] = male rats, 6 hr, mean ± SD, 5 mg/kg
[11] = male rats, 24 hr, individual rats, 5 mg/kg
[12] = male rats, 24 hr, mean ± SD, 5 mg/kg

Concentration of Total Radioactivity in Whole Blood (female rats, 1 hr, mean ± SD): 633 ± 157 ng equivalents/mL
Concentration of Total Radioactivity in Whole Blood (female rats, 3 hr, mean ± SD): 273 ± 61.2 ng equivalents/mL
dose excreted in urine (male rats, 0-24 hr urine): 3.6%
Concentration of Total Radioactivity in Whole Blood (male rats, 1 hr, mean ± SD): 216 ± 42.3^a ng equivalents/mL
Concentration of Total Radioactivity in Whole Blood (male rats, 3 hr, mean ± SD): 127 ± 35.1^a ng equivalents/mL
Concentration of Total Radioactivity in Whole Blood (male rats, 6 hr, mean ± SD): 90.2 ± 24.1 ng equivalents/mL
Concentration of Total Radioactivity in Whole Blood (male rats, 24 hr, mean ± SD): 25.7 ± 2.64 ng equivalents/mL
administered radioactivity recovered in feces (male rats, first 24 hr, average): 81.9%
Structure (SMILES): COc1cc(N2CCN(C3CCN(c4ccc(F)c5cccnc45)CC3)CC2)c2ncccc2c1 [[^14C]COMPOUND I, [piperazine-^14C(U)]-5-fluoro-8-(4-(4-(6-methoxyquinolin-8-yl)piperazin-1-yl)piperidin-1-yl)quinoline trisuccinate]
Concentration of Total Radioactivity in Plasma [1]: 1274 ng equivalents/mL and 854 ng equivalents/mL and 383 ng equivalents/mL
Concentration of Total Radioactivity in Whole Blood [1]: 815 ng equivalents/mL and 549 ng equivalents/mL and 536 ng equivalents/mL
Brain Radioactivity Concentrations (female rats, 1 hr, individual, 5 mg/kg): 149 ng equivalents/g and 121 ng equivalents/g and 128 ng equivalents/g
Brain Radioactivity Concentrations [2]: 133 ng equivalents/g and 133 ± 15 ng equivalents/g
Concentration of Total Radioactivity in Plasma [2]: 837 ng equivalents/mL and 837 ± 446 ng equivalents/mL
Concentration of Total Radioactivity in Plasma [3]: 504 ng equivalents/mL and 298 ng equivalents/mL and 436 ng equivalents/mL
Concentration of Total Radioactivity in Whole Blood [3]: 326 ng equivalents/mL and 206 ng equivalents/mL and 287 ng equivalents/mL
Brain Radioactivity Concentrations (female rats, 3 hr, individual, 5 mg/kg): 54 ng equivalents/g and 30 ng equivalents/g and 61 ng equivalents/g
Brain Radioactivity Concentrations [4]: 49 ng equivalents/g and 49 ± 16 ng equivalents/g
Concentration of Total Radioactivity in Plasma [4]: 412 ng equivalents/mL and 412 ± 105 ng equivalents/mL
Concentration of Total Radioactivity in Plasma [5]: 366 ng equivalents/mL and 295 ng equivalents/mL and 887 ng equivalents/mL
Concentration of Total Radioactivity in Whole Blood [5]: 228 ng equivalents/mL and 169 ng equivalents/mL and 251 ng equivalents/mL
Brain Radioactivity Concentrations (male rats, 1 hr, individual, 5 mg/kg): 48 ng equivalents/g and 42 ng equivalents/g and 63 ng equivalents/g
Brain Radioactivity Concentrations [6]: 51 ng equivalents/g and 51 ± 11^c ng equivalents/g
Concentration of Total Radioactivity in Plasma [6]: 516 ng equivalents/mL and 516 ± 323 ng equivalents/mL
Concentration of Total Radioactivity in Plasma [7]: 172 ng equivalents/mL and 256 ng equivalents/mL and 144 ng equivalents/mL
Concentration of Total Radioactivity in Whole Blood [7]: 115 ng equivalents/mL and 166 ng equivalents/mL and 98.6 ng equivalents/mL
Brain Radioactivity Concentrations (male rats, 3 hr, individual, 5 mg/kg): 22 ng equivalents/g and 31 ng equivalents/g and 23 ng equivalents/g
Brain Radioactivity Concentrations [8]: 25 ng equivalents/g and 25 ± 4.9 ng equivalents/g
Concentration of Total Radioactivity in Plasma [8]: 191 ng equivalents/mL and 191 ± 58.3^a ng equivalents/mL
Concentration of Total Radioactivity in Plasma [9]: 112 ng equivalents/mL and 114 ng equivalents/mL and 163 ng equivalents/mL
Concentration of Total Radioactivity in Whole Blood [9]: 77.2 ng equivalents/mL and 75.5 ng equivalents/mL and 118 ng equivalents/mL
Brain Radioactivity Concentrations (male rats, 6 hr, individual, 5 mg/kg): 15 ng equivalents/g and 13 ng equivalents/g and 19 ng equivalents/g
Brain Radioactivity Concentrations [10]: 16 ng equivalents/g and 16 ± 3.2 ng equivalents/g
Concentration of Total Radioactivity in Plasma [10]: 130 ng equivalents/mL and 130 ± 28.9 ng equivalents/mL
Concentration of Total Radioactivity in Plasma [11]: 23.3 ng equivalents/mL and 24.2 ng equivalents/mL and 26.7 ng equivalents/mL
Concentration of Total Radioactivity in Whole Blood [11]: 22.8 ng equivalents/mL and 26.2 ng equivalents/mL and 28.0 ng equivalents/mL
Brain Radioactivity Concentrations (male rats, 24 hr, individual, 5 mg/kg): 7.1 ng equivalents/g and 5.3 ng equivalents/g and 6.1 ng equivalents/g
Brain Radioactivity Concentrations [12]: 6.2 ng equivalents/g and 6.2 ± 0.9 ng equivalents/g
Concentration of Total Radioactivity in Plasma [12]: 24.7 ng equivalents/mL and 24.7 ± 1.76 ng equivalents/mL
